Data set [1] has as its target T1, human recombinant Monoacylglycerol Lipase (Homo sapiens, UniProt Q99685).
T1 sequence (Q99685 1-303): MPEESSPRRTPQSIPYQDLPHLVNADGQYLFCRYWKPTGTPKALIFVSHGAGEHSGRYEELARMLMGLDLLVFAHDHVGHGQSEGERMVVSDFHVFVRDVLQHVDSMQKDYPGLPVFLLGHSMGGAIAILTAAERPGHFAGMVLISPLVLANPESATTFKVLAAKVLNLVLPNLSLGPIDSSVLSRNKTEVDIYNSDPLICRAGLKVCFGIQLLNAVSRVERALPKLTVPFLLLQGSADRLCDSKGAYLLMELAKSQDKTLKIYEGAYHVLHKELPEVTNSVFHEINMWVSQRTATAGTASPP
Briefly: MAGL inhibition enzymatic assay (7-HCA fluorogenic substrate). Particulars: geometric mean. The format is biochemical. Here is the method: (§1) Assessment of MAGL inhibition utilizes human recombinant Monoacylglycerol Lipase and the fluorogenic substrate 7-hydroxycoumarinyl arachidonate (7-HCA, Biomol ST-502). 400 nL of a test compound at decreasing concentration (ranging from 150 μM down to 1.5 nM) was spotted into a 384-well back plate (PerkinElmer, 6007279) using a Labcyte Echo, followed by addition of 10 μL of MAGL enzyme in assay buffer (50 mM HEPES, pH 7.4, 100 mM NaCl, 5 mM MgCl2, 0.1% Triton X-100 and 25% glycerin). An equal volume of 7-HCA in assay buffer with 10% DMSO was added either immediately (T=0 min) or after a 30 minute incubation (T=30 min) to initiate the reaction. The final concentration of MAGL enzyme was […] and 7-HCA substrate was 5 μM. After these dilutions, the final concentration of the test compound ranged from 3 μM to 0.03 nM. The reaction was allowed to progress for 60 minutes, after which the plate was read at an Ex/Em of 340/465. Percent inhibitions were calculated based on control wells containing no compound (0% inhibition) and a control compound (e.g., a MAGL inhibitor whose activity is known or was previously reported in the literature, such as one with about 100% inhibition). IC50 values were generated based on a four parameter fit model using ABASE software from IDBS. See e.g., Wang, Y. et al., “A Fluorescence-Based Assay for Monoacylglycerol Lipase Compatible with Inhibitor Screening,” Assay and Drug Development Technologies, 2008, Vol. 6 (3) pp 387-393 (reporting an assay for measuring MAGL activity).

Data set [2] has as its target T1, human recombinant Monoacylglycerol Lipase. Briefly: MAGL inactivation (enzyme progress curves, kinact/KI). Conditions: geometric mean. In kind it is biochemical. The protocol:
as §1
To measure MAGL inactivation, the same protocol for the (T=0 min) MAGL inhibition IC50 assay was performed with data collected every minute to acquire enzyme progress curves at decreasing concentrations of compound.

A short description of data set [3]: In vitro intrinsic clearance in human liver microsomes (HLM). In kind it is in vitro ADME. Conditions: pH 7.4, 1 μM substrate, NADPH, 37° C., read-out: HLM CLint, app. Here is the method:
Test Compounds (Example 1-3 and Comparative-Compounds 1-4) were prepared as solutions in DMSO. The final concentration of DMSO in the incubation was <0.1% (v/v). […] (all final concentrations) in a 384-well plate. The reaction mixture was pre-warmed at 37° C. for 10 min prior to initiation of the incubation. The incubation was quenched with acetonitrile containing internal standards at the following time points: 1, 4, 7, 12, 20, 25, 45, and 60 min (individual incubation plates per time point) with a subsequent addition of water. The samples were vortexed followed by centrifugation and the supernatant was analyzed by LC/MS-MS using multiple reaction monitoring. For control experiments, NADPH was omitted from the incubations.
The microsomal t½ (min) was obtained from a log-linear plot of the substrate depletion versus incubation time and was scaled to hepatic intrinsic clearance (CLint,app (μL/min/mg protein) using the following equation: […]
(In general: Liver microsomes are a subcellular fraction often used to study metabolism.)

Data set [4] in a line: In vitro intrinsic clearance in human hepatocytes. In kind it is in vitro ADME. Conditions: 1 μM substrate, human hepatocytes 0.5 million viable cells per mL, 37° C. Here is the method:
Test Compounds (Example 1-3 and Comparative-Compounds 1-4) were prepared as solutions in DMSO at 3 mM which were then diluted in media containing WEM. The final concentration of DMSO in the incubation was 0.03% (v/v). The in vitro half-life (t½) of each compound was determined in incubations containing substrate (1 μM), human hepatocytes (0.5 million viable cells per mL final concentration) in media containing WEM, 50 mM HEPES buffer (pH 7.4), and 26 mM sodium bicarbonate at 37° C. (all final concentrations) in a 96-well plate. The reaction mixture was pre-warmed at 37° C. for 30 min prior to the initiation of the incubation. The incubation was quenched with acetonitrile containing internal standards at the following time points: 0, 5, 15, 30, 60, 120, and 240 min (individual incubation plates per time point). The samples were vortexed followed by centrifugation. An aliquot of supernatant was transferred to a clean 96-well plate and analyzed by LC/MS-MS using multiple reaction monitoring. For control experiments, hepatocytes were omitted from the incubations.
The hepatocyte t½ (min) was obtained from a log-linear plot of the substrate depletion versus incubation time and was scaled to hepatic intrinsic clearance (CLint,app (μL/min/million cells) using the following equation: […]

Setting [5] is: 30 minute incubation before substrate, read-out: MAGL (T = 30 min) IC50.
Setting [6] is: substrate added immediately (T=0 min), read-out: MAGL (T = 0 min) IC50.

Where two headings read alike, the source gives them in different places.

The IC50 is the concentration that gives 50% inhibition. On to `O=C(OC(C(F)(F)F)C(F)(F)F)N1CCC2(CCC(NS(=O)(=O)CC3CC3)CO2)CC1` (stereo not drawn) [Example 3, 1,1,1,3,3,3-Hexafluoropropan-2-yl 3-{[(cyclopropylmethyl)sulfonyl]amino}-1-oxa-9-azaspiro[5.5]undecane-9-carboxylate], for which the 50% inhibitory concentration (IC50) in data set [1] (setting [5]) came out at 28.5 nM; in data set [1] (setting [6]), 298 nM. Further, the “MAGL kinact/KI” value in data set [2] is listed as 3160 1/s per M. Besides, the microsomal CLint at 1 μM in data set [3] was less than 8 µL/min/mg. Also, in data set [4], the “HHEPs CLint, app” value is on record as less than 3.57 μL/min/million.
Turning to `O=C(OC(C(F)(F)F)C(F)(F)F)N1CCC2(CC1)C[C@@H](NS(=O)(=O)C1CC1)CO2` [Example 2, 1,1,1,3,3,3-Hexafluoropropan-2-yl (3R)-3-[(cyclopropylsulfonyl)amino]-1-oxa-8-azaspiro[4.5]decane-8-carboxylate], the figures for the 50% inhibitory concentration (IC50) in data set [1] (setting [5]) and in data set [1] (setting [6]) were 34.7 nM and 369 nM, respectively. Further, the “MAGL kinact/KI” value in data set [2] is on record as 2050 1/s per M. The microsomal CLint at 1 μM in data set [3] is less than 8 µL/min/mg. For the same compound, the “HHEPs CLint, app” value in data set [4] was found to be 3.46 μL/min/million.
The matching figures for `O=C(OC(C(F)(F)F)C(F)(F)F)N1CCC2(CC1)C[C@@H](NS(=O)(=O)CC1CC1)CO2` [Example 1, 1,1,1,3,3,3-Hexafluoropropan-2-yl (3R)-3-{[(cyclopropylmethyl)sulfonyl]amino}-1-oxa-8-azaspiro[4.5]decane-8-carboxylate]: 27.6 nM, 292 nM, 2990 1/s per M, less than 8 µL/min/mg and less than 4.26 μL/min/million.

For the origin of these results see patent US20210309669A1, “Heterocyclic Spiro Compounds As MAGL Inhibitors” (Pfizer Inc., priority 2018, published 2021).
